The values that follow come from PMC8391421, “Identification of Novel Positive Allosteric Modulators of Neurotrophin Receptors for the Treatment of Cognitive Dysfunction” (Cells, 2021).

The target in one experiment is T1, TrkC (Homo sapiens, UniProt Q16288).
T1 construct: host or cells: U2OS (human osteosarcoma), co-expressing p75
The experiment in a line: TrkC PathHunter cell-based assay (U2OS-TrkC/p75). An excerpt: (§1) The human osteosarcoma cell lines U2OS-TrkA/p75, U2OS-TrkB/p75, U2OS-TrkC/p75, U2OS-ratTrkA/p75, U2OS-FGFR1 (fibroblast growth factor receptor 1) as well as the human embryonic kidney cell line HEK293-IGF1R (insulin-like growth factor 1 receptor) from DiscoverX, Birmingham, United Kingdom, were used in the in vitro experiments. Eagle’s minimum essential medium (EMEM) ATCC #30-2003 from LGC Standards AB, Borås, Sweden; Leibovitz’s L15 medium, RPMI1640, fetal bovine serum, horse serum, penicillin/streptomycin, and Hoechst dye purchased from Invitrogen, Gothenburg, Sweden, were also used. Black poly-D-lysine coated 384-well plates (Viewplate) were purchased from PerkinElmer, Upplands Väsby, Sweden, and white 384-well assay plates(3570) were purchased from Corning, Amsterdam, Netherlands. […] Recombinant intracellular domain (ICD) of TrkA (08-186) and single site biotinylated activated (08-486-20N) or non-activated TrkA (08-486-23N) were obtained from Carna Biosciences, Odense, Denmark. […]
(§2) U2OS cells were maintained subconfluent in EMEM supplemented with 10% FBS and penicillin/streptomycin/hygromycin and G418. […] The functional (complemented) β-gal will hydrolyze a substrate to generate a luminescence signal. The generated luminescence was read using an EnVision plate reader from PerkinElmer, Upplands Väsby, Sweden, or an ID5 plate reader from Molecular Devices, Berkshire, RG41 5TS UK. […]

Experiment [1] concerns the target T2, insulin-like growth factor 1 receptor (IGF1R) (Homo sapiens, UniProt P08069).
T2 construct: host or cells: HEK293
Briefly: IGF1R PathHunter cell-based assay (HEK293-IGF1R).
Excerpt: as §1, §2

The target in experiment [2] is T3, fibroblast growth factor receptor (FGFR1) (Homo sapiens, UniProt P11362).
T3 construct: host or cells: U2OS (human osteosarcoma)
Briefly: FGFR1 PathHunter cell-based assay (U2OS-FGFR1).
Excerpt: as §1, §2

Experiment [3] concerns Shaffer collaterals-CA1 pathway, hippocampal slices. The experiment in a line: Facilitation of long-term potentiation in rat hippocampal slices. Particulars: 20 µM added 15 min before Ø burst stimulation; n = 7 slices from 5 rats. The method, then: Male Sprague Dawley rats (4–5 weeks old) from Charles River Laboratories, Sulzfeld, Germany, were used in these experiments. Rats were deeply anesthetized using isoflurane and decapitated soon after the disappearance of the corneal reflexes. The brains were removed and placed in ice-cold standard artificial CSF (aCSF) solution (124 mM NaCl, 30 mM NaHCO3, 10 mM glucose, 1.25 mM NaH2PO4, 3.5 mM KCl, 1 mM MgCl2, 2 mM CaCl2). Hippocampal horizontal sections (400 µm thick) were prepared using a Leica VT1200S vibratome (Leica Microsystems, Kista, Sweden). Immediately after slicing, sections were transferred into an interface incubation chamber filled with standard aCSF. The chamber was held at 34 °C during the slicing period and was subsequently allowed to cool down to room temperature. […] The facilitation of long-term potentiation (LTP) was monitored in the Shaffer collaterals (SC)-CA1 pathway in the hippocampus. […] Data were normalized with respect to the mean fEPSP slope recorded during the last 10 min of the baseline period.
It has been well-described that the transient, short-term plasticity of synaptic strength induced by a weak stimulation in hippocampal slices can turn into long-term potentiation (LTP) through the exogenous application of BDNF [71, 72, 73]. […] In the control slices, the recorded potentiation decreased to the baseline level after 60 min. […]

Each structure is given as a SMILES string.

T3 sequence (P11362 22-822): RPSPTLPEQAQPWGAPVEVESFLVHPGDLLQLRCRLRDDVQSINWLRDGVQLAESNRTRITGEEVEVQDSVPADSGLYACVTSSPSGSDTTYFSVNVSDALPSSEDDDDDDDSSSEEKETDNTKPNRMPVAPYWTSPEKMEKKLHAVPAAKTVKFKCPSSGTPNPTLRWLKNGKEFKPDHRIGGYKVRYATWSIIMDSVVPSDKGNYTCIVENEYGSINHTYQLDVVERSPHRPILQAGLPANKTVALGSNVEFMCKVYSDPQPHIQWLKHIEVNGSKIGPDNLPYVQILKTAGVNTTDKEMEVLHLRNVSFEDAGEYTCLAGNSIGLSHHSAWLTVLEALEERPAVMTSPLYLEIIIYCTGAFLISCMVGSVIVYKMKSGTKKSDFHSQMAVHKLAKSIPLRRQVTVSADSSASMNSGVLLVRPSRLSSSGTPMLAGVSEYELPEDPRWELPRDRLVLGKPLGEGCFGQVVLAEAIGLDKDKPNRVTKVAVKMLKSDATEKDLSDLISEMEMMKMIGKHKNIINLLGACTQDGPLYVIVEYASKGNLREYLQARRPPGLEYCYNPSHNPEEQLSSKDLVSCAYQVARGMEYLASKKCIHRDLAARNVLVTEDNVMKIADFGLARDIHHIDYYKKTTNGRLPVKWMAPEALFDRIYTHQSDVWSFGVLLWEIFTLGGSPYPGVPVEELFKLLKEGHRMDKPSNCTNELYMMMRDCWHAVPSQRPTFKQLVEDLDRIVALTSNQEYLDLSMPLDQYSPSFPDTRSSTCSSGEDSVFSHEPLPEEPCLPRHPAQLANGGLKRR
T1 sequence (Q16288 32-839): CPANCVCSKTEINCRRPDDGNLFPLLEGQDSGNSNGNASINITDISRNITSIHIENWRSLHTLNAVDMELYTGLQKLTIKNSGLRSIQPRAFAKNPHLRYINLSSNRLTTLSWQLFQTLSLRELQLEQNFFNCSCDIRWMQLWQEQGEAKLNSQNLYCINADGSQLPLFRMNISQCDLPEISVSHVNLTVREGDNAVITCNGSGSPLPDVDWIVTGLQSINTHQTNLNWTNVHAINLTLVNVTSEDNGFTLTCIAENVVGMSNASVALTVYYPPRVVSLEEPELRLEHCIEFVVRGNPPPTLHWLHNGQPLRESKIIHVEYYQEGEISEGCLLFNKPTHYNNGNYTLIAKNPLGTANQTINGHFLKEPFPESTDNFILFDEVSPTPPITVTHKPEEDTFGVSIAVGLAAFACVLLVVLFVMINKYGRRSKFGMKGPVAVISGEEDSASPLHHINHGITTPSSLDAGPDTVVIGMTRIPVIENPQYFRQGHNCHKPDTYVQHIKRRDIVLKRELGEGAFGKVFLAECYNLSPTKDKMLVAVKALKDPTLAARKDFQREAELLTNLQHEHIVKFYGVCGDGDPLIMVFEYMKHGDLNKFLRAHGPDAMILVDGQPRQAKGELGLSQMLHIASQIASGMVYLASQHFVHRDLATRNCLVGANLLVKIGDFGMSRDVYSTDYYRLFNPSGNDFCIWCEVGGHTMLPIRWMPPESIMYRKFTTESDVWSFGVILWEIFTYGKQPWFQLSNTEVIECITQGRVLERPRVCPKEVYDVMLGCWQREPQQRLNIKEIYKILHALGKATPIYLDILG
T2 sequence (P08069 31-1367): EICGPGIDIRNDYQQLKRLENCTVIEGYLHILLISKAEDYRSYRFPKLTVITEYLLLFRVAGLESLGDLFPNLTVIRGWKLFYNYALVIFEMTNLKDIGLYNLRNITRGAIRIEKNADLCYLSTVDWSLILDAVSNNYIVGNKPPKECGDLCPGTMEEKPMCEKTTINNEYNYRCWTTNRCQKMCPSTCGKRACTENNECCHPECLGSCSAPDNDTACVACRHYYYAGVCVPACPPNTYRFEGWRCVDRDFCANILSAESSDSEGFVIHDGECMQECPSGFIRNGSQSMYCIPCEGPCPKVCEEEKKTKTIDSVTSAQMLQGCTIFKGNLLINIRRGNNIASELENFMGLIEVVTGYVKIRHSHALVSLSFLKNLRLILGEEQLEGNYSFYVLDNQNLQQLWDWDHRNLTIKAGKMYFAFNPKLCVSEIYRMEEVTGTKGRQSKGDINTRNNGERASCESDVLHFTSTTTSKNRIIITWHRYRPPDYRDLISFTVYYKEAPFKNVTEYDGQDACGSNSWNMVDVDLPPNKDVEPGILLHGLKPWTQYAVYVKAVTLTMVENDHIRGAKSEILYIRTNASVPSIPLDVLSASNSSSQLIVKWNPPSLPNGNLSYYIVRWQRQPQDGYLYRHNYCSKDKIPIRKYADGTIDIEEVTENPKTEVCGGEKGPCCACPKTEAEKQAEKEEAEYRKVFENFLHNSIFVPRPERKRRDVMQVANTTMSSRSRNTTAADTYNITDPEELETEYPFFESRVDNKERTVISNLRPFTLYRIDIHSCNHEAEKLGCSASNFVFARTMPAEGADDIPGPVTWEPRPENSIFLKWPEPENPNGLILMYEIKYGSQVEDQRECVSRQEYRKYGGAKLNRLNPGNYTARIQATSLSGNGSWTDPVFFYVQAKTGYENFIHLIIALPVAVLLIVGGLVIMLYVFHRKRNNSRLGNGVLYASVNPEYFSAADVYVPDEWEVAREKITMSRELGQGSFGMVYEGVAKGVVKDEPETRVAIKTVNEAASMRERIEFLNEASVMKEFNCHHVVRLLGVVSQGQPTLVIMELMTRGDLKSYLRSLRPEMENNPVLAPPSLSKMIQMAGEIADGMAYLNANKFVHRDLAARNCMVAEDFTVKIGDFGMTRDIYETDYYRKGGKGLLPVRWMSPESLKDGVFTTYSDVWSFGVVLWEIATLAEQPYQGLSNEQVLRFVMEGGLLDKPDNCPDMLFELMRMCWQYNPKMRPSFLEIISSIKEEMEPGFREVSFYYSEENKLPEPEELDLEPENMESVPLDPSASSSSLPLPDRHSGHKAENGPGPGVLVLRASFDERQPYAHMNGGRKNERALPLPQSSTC

Regarding `Cc1cc(-n2c(=O)[nH]c(=O)n(C)c2=O)ccc1Oc1ccc(S(=O)(=O)C(F)(F)F)cc1` [ACD855, Toltrazuril-sulfone], on TrkC, the concentration for a half-maximal effect (EC50) stood at 800 nM and the “TrkC Effect (efficacy)” value was 56%. Also, in experiment [1], the EC50 amounted to 900 nM and the “IGF1R Effect (efficacy)” value is 25%. Besides, in experiment [2], the 50% effective concentration (EC50) amounted to 800 nM and the “FGFR1 Effect (efficacy)” value stood at 44%. Moreover, the “long-lasting potentiation of evoked synaptic responses (fEPSP slope), fold increase” value in experiment [3] turned out to be 1.21 ± 0.03 fold.
